Our source for the IC50 values is US20130005825A1, “Inhibition of the Survival of Lymphoma by Cyclohexenone Compounds from Antrodia Camphorata” (Golden Biotechnology Corporation, priority 2009, published 2013).

The subject of the assay is lymphoma cell line U937. Nature of the assay: In vitro survival assay (MTT) for anti-lymphoma effects. Particulars: Homo sapiens, U-937, U937 cells, 48 hours treatment, read-out: IC50 (half inhibition concentration), survival of lymphoma cells. It counts as cell-based. The method, then: Inhibiting effects of lymphoma cells by cyclohexenone compounds of Antrodia camphorata from example 1 were assessed according to the anticancer-drug screening model of National Cancer Institute (NCI). The compound 4-hydroxy-2,3-dimethoxy-6-methyl-5-(3,7,11-trimethyl-dodeca-2,6,10-trienyl)-cyclohex-2-enone from example 1 was added into the culture media of lymphoma cell line U937 to determine the survival rates. Survival of cell was analyzed using MTT assay. U937 cell line was a human histiocytic lymphoma cell line.
MTT assay is commonly used to analyze cell proliferation, survival rate of viable cells and cytotoxicity. MTT (3[4,5-dimethylthiazol-2-yl]-2,5-diphenyltetrazolium bromide) is a yellow dye which can be converted to water-insoluble purple formazan on the reductive cleavage of its tetrazolium ring by the succinate tetrazolium reductase in mitochondria of cells. The amount of formazan produced is used to detect the number of viable cells and calculate the survival rates.
The U937 cells were cultivated in RPMI 1640 medium supplemented with 10% fetal bovine serum, 10 U/ml of Penicillin and 100 μg/ml of Streptomycin at 37° C., 5% CO2 for 24 hours. […] The absorbances were measured at 570 nm with an ELISA Reader to determine the survival rates.

On to `COC1=C(OC)C(O)C(C/C=C(\C)CC/C=C(\C)CCC=C(C)C)C(C)C1=O` (stereo not shown) [formula 2, 4-hydroxy-2,3-dimethoxy-6-methyl-5-(3,7,11-trimethyl-dodeca-2,6,10-trienyl)-cyclohex-2-enone], for which the IC50 amounted to 9.71 µg/mL.
